According to the NIST ThermoML archive (doi:10.1016/j.fluid.2016.08.015):
Numbers after ± are expanded uncertainties.

Experiments:
[1] = Liquid; for mass density: 293.15 K, 101.33 kPa, Vibrating tube method; for vapor or sublimation pressure: 298 K, Gas chromatography
[2] = refractive index (Na D-line) (dimensionless); settings: 293.15 K; 101.33 kPa; Liquid; Standard Abbe refractometry

| Compound | mass density [1] | vapor or sublimation pressure [1] | refractive index [2] |
| --- | --- | --- | --- |
| FC(F)(F)C(F)(F)C(F)(F)C(F)(F)C(F)(F)C(F)(F)C(F)(F)C(F)(F)C(F)(F)F [eicosafluorononane] | 1798 ± 1 kg/m3 | 2.57 ± 0.27 kPa | 1.275 ± 0.001 |
| FC(F)(F)C(F)(F)C(F)(F)C(F)(F)C(F)(F)C(F)(F)C(F)(F)F [hexadecafluoroheptane] | 1717 ± 1 kg/m3 | 10.12 ± 0.79 kPa | 1.261 ± 0.001 |
